From PubChem BioAssay (NCI)
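Each compound was tested at five concentrations against cells in 96-well plates for 48 hours. TGI is the concentration that stops growth completely.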

Key:
Test in all cases: inhibition of tumour cell growth, NCI panel, 48 h
[1] = system: SK-MEL-2 melanoma
[2] = system: NCI-H522 lung
[3] = system: SNB-19 CNS
[4] = system: T-47D breast
[5] = system: UACC-257 melanoma
[6] = system: ACHN renal
[7] = system: SF-295 CNS
[8] = system: M14 melanoma
[9] = system: NCI/ADR-RES ovarian
[10] = system: HT29 colon
[11] = system: A498 renal
[12] = system: IGROV1 ovarian
[13] = system: TK-10 renal
[14] = system: UO-31 renal
[15] = system: MDA-MB-231 breast
[16] = system: HOP-62 NSCLC
[17] = system: BT-549 breast
[18] = system: NCI-H460 lung
[19] = system: MDA-N
[20] = system: MCF7 breast
[21] = system: DU-145 prostate
[22] = system: 786-0 renal
[23] = system: K-562 leukemia
[24] = system: SF-268 CNS
[25] = system: PC-3 prostate
[26] = system: HL-60(TB) leukemia
[27] = system: SW-620 colon
[28] = system: MDA-MB-435
[29] = system: SK-OV-3 ovarian
[30] = system: EKVX NSCLC
[31] = system: CAKI-1 renal
[32] = system: SR leukemia
[33] = system: SK-MEL-28 melanoma
[34] = system: U251 CNS
[35] = system: HS 578T breast
[36] = system: RPMI-8226 leukemia
[37] = system: HCT-116 colon
[38] = system: NCI-H226 lung
[39] = system: OVCAR-3 ovarian
[40] = system: A549 NSCLC
[41] = system: SNB-75 CNS
[42] = system: SF-539 CNS
[43] = system: OVCAR-8 ovarian
[44] = system: HCT-15 colon
[45] = system: SN12C renal
[46] = system: HOP-92 NSCLC
[47] = system: HCC-2998 colon
[48] = system: NCI-H23 lung
[49] = system: SK-MEL-5 melanoma
[50] = system: KM12 colon
[51] = system: UACC-62 melanoma
[52] = system: OVCAR-5 ovarian
[53] = system: MOLT-4 leukemia
[54] = system: LOX IMVI melanoma
[55] = system: CCRF-CEM leukemia
[56] = system: OVCAR-4 ovarian
[57] = system: COLO 205 colon
[58] = system: RXF 393 renal
[59] = system: MALME-3M melanoma

## CC(=O)C1(O)CCC2(O)C3(O)CC=C4CC(O)CCC4(C)C3CC(OC(=O)c3ccc(O)cc3)C12C (stereo unspecified)
[1]
  TGI: > 100 µM
[2]
  TGI: > 100 µM
[3]
  TGI: > 100 µM
[4]
  TGI: > 100 µM
[5]
  TGI: > 100 µM
[6]
  TGI: > 100 µM
[7]
  TGI: > 100 µM
[8]
  TGI: > 100 µM
[9]
  TGI: > 100 µM
[10]
  TGI: > 100 µM
[11]
  TGI: > 100 µM
[12]
  TGI: > 100 µM
[13]
  TGI: > 100 µM
[14]
  TGI: > 100 µM
[15]
  TGI: > 100 µM
[16]
  TGI: > 100 µM
[17]
  TGI: > 100 µM
[18]
  TGI: > 100 µM
[19]
  TGI: > 100 µM
[20]
  TGI: > 100 µM
[21]
  TGI: > 100 µM
[22]
  TGI: > 100 µM
[23]
  TGI: > 100 µM
[24]
  TGI: > 100 µM
[25]
  TGI: > 100 µM
[26]
  TGI: > 100 µM
[27]
  TGI: > 100 µM
[28]
  TGI: > 100 µM
[29]
  TGI: > 100 µM
[30]
  TGI: > 100 µM
[31]
  TGI: > 100 µM
[32]
  TGI: > 100 µM
[33]
  TGI: > 100 µM
[34]
  TGI: > 100 µM
[35]
  TGI: > 100 µM
[36]
  TGI: > 100 µM
[37]
  TGI: > 100 µM
[38]
  TGI: > 100 µM
[39]
  TGI: > 100 µM
[40]
  TGI: > 100 µM
[41]
  TGI: > 100 µM
[42]
  TGI: > 100 µM
[43]
  TGI: > 100 µM
[44]
  TGI: > 100 µM
[45]
  TGI: > 100 µM
[46]
  TGI: > 100 µM
[47]
  TGI: > 100 µM
[48]
  TGI: > 100 µM
[49]
  TGI: > 100 µM
[50]
  TGI: > 100 µM
[51]
  TGI: > 100 µM
[52]
  TGI: > 100 µM
[53]
  TGI: > 100 µM
[54]
  TGI: > 100 µM
[55]
  TGI: > 100 µM
[56]
  TGI: > 100 µM
[57]
  TGI: > 100 µM

## O=C(O)C1=NN(c2ccc(S(=O)(=O)O)cc2)C2(C1)C(Cl)C(=O)N2c1nc2ccccc2s1 (stereo unspecified)
[1]
  TGI: 32 µM
[2]
  TGI: 25.8 µM
[3]
  TGI: 64.8 µM
[4]
  TGI: 44.8 µM
[5]
  TGI: 37.2 µM
[6]
  TGI: 30.7 µM
[7]
  TGI: 32.3 µM
[8]
  TGI: 30.3 µM
[9]
  TGI: 56.2 µM
[10]
  TGI: 34.9 µM
[11]
  TGI: 36.7 µM
[12]
  TGI: 21.5 µM
[13]
  TGI: 33.2 µM
[14]
  TGI: 22.9 µM
[15]
  TGI: 37.5 µM
[16]
  TGI: 30.5 µM
[17]
  TGI: 33 µM
[18]
  TGI: 33.2 µM
[19]
  TGI: 53.1 µM
[20]
  TGI: 29.9 µM
[21]
  TGI: 55.9 µM
[22]
  TGI: 32 µM
[23]
  TGI: 58.5 µM
[24]
  TGI: 39.8 µM
[58]
  TGI: 34.8 µM
[59]
  TGI: 38.7 µM
[25]
  TGI: 31.2 µM
[26]
  TGI: 34.4 µM
[27]
  TGI: 19.8 µM
[28]
  TGI: 32.6 µM
[29]
  TGI: 30.6 µM
[30]
  TGI: 34.3 µM
[31]
  TGI: 31.5 µM
[32]
  TGI: 24.5 µM
[33]
  TGI: 46.3 µM
[34]
  TGI: 32.1 µM
[35]
  TGI: > 100 µM
[36]
  TGI: 35.6 µM
[37]
  TGI: 33.1 µM
[38]
  TGI: 41.4 µM
[39]
  TGI: 33.8 µM
[40]
  TGI: 35.2 µM
[41]
  TGI: 30.7 µM
[42]
  TGI: 12.6 µM
[43]
  TGI: 38.8 µM
[44]
  TGI: 42.4 µM
[45]
  TGI: 43.7 µM
[46]
  TGI: 48.8 µM
[47]
  TGI: 33.4 µM
[48]
  TGI: 30.2 µM
[49]
  TGI: 25.6 µM
[50]
  TGI: 34.1 µM
[51]
  TGI: 29.5 µM
[52]
  TGI: 32.8 µM
[53]
  TGI: 39.6 µM
[54]
  TGI: 12.7 µM
[56]
  TGI: 35.3 µM
[57]
  TGI: 35.1 µM

## COc1cc2c3cc1Oc1c(OC)c(OC)cc4c1C(Cc1ccc(O)c(c1)Oc1ccc(cc1)CC3N(C)CC2)CN(C)C4 (stereo unspecified)
[1]
  TGI: 33.6 µM
[2]
  TGI: 26.2 µM
[3]
  TGI: 84.5 µM
[4]
  TGI: 69.6 µM
[5]
  TGI: 27.1 µM
[6]
  TGI: > 100 µM
[7]
  TGI: 32.7 µM
[8]
  TGI: 15 µM
[9]
  TGI: 41.7 µM
[10]
  TGI: 13.7 µM
[11]
  TGI: 31.2 µM
[12]
  TGI: 48.9 µM
[13]
  TGI: 32.2 µM
[14]
  TGI: 29.8 µM
[15]
  TGI: 28.1 µM
[16]
  TGI: 37.2 µM
[17]
  TGI: 30.2 µM
[18]
  TGI: 33.7 µM
[19]
  TGI: 24.5 µM
[20]
  TGI: 34.2 µM
[21]
  TGI: 60.8 µM
[22]
  TGI: 22.9 µM
[23]
  TGI: 29.6 µM
[24]
  TGI: 65.6 µM
[58]
  TGI: 23.4 µM
[59]
  TGI: 30.9 µM
[25]
  TGI: > 100 µM
[26]
  TGI: 6.11 µM
[27]
  TGI: 30 µM
[28]
  TGI: 23.7 µM
[29]
  TGI: 47.9 µM
[30]
  TGI: 43.4 µM
[31]
  TGI: 44.3 µM
[32]
  TGI: 41.7 µM
[33]
  TGI: 31.9 µM
[34]
  TGI: 24.7 µM
[35]
  TGI: 38.9 µM
[36]
  TGI: 47.6 µM
[37]
  TGI: 19 µM
[38]
  TGI: 68.9 µM
[39]
  TGI: 30.9 µM
[40]
  TGI: 63.9 µM
[41]
  TGI: 29.9 µM
[42]
  TGI: 26.9 µM
[43]
  TGI: 31.3 µM
[44]
  TGI: 33.9 µM
[45]
  TGI: 34.7 µM
[46]
  TGI: 43.4 µM
[47]
  TGI: 13.7 µM
[48]
  TGI: 34.9 µM
[49]
  TGI: 26.4 µM
[50]
  TGI: 26.3 µM
[51]
  TGI: 32.1 µM
[52]
  TGI: 44.8 µM
[53]
  TGI: 54.5 µM
[55]
  TGI: 15.6 µM
[56]
  TGI: 39.1 µM
[57]
  TGI: 21.6 µM

## C=C1CC(COc2ccc3c(C)c(C)c(=O)oc3c2C)(c2ccccc2)OC1=O (stereo unspecified)
[1]
  TGI: 3.91 µM
[2]
  TGI: 4.16 µM
[3]
  TGI: 27.1 µM
[4]
  TGI: 4.96 µM
[5]
  TGI: 2.14 µM
[6]
  TGI: 7.51 µM
[7]
  TGI: 19.2 µM
[8]
  TGI: 4.23 µM
[9]
  TGI: 8.24 µM
[10]
  TGI: 3.27 µM
[11]
  TGI: 12.5 µM
[12]
  TGI: 3.47 µM
[13]
  TGI: 3.03 µM
[14]
  TGI: 7 µM
[15]
  TGI: 7.86 µM
[16]
  TGI: 20.8 µM
[17]
  TGI: 3.17 µM
[18]
  TGI: 18 µM
[19]
  TGI: 4.4 µM
[20]
  TGI: 3.56 µM
[21]
  TGI: 6 µM
[22]
  TGI: 2.78 µM
[23]
  TGI: 3.88 µM
[24]
  TGI: 7.96 µM
[59]
  TGI: 4.16 µM
[25]
  TGI: 3.84 µM
[26]
  TGI: 5.54 µM
[27]
  TGI: 3.5 µM
[28]
  TGI: 7.96 µM
[29]
  TGI: 13.4 µM
[30]
  TGI: 20.8 µM
[31]
  TGI: 3.33 µM
[32]
  TGI: > 100 µM
[33]
  TGI: 5.44 µM
[34]
  TGI: 20.3 µM
[35]
  TGI: 13 µM
[36]
  TGI: 0.764 µM
[37]
  TGI: 2.77 µM
[38]
  TGI: 6.73 µM
[39]
  TGI: 9.66 µM
[40]
  TGI: 26.7 µM
[41]
  TGI: 10.4 µM
[42]
  TGI: 4.75 µM
[43]
  TGI: 3.59 µM
[44]
  TGI: 3.84 µM
[45]
  TGI: 11.3 µM
[46]
  TGI: 2.96 µM
[47]
  TGI: 7.12 µM
[48]
  TGI: 4.64 µM
[49]
  TGI: 3.23 µM
[50]
  TGI: 9.35 µM
[51]
  TGI: 3.42 µM
[52]
  TGI: 25.1 µM
[53]
  TGI: 3.05 µM
[54]
  TGI: 2.85 µM
[55]
  TGI: 1.55 µM
[56]
  TGI: 4.82 µM
[57]
  TGI: 3.24 µM
